Among the data in article PMC3993905 (2014) are cleaved bond values, retold here.

The data set has as its system MMP-2. Description: active MMP-2. Particulars: human, room temperature, up to 6 h.

Turning to Ac-KKYGPQGIAGQYKK-NH2, the cleaved bond result is given as “G-I, 6 h”. In the case of Ac-KKYIPVSLRSGYKK-NH2, the cleaved bond entry is “S-L, 6 h”.
